Laboratory results as given in US20250243194A1, “ANTAGONIST OF ADENOSINE RECEPTORS” (AdoRx Therapeutics Limited, priority 2022, published 2025).
Where two headings read alike, the source gives them in different places.

Experiments:
[1] = target: human Adenosine A1 receptor (Homo sapiens (Human), UniProt P30542); test: Adenosine receptor TR-FRET binding assay (A1)
Outline: (§1)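 Compounds incubated 2 h at room temperature with membranes from CHO cells expressing terbium-labelled human receptors, competing with the fluorescent antagonist CA200645 (30 nM for A2b; 100 nM for A1, A2a and A3). Read by TR-FRET (665/620 nm); non-specific binding defined with 10 μM XAC. Ki derived from IC50 via Cheng-Prusoff.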

[2] = target: human Adenosine A2a receptor (Homo sapiens (Human), UniProt P29274); test: Adenosine receptor TR-FRET binding assay (A2a)
Chain of human Adenosine A2a receptor (P29274 whole entry): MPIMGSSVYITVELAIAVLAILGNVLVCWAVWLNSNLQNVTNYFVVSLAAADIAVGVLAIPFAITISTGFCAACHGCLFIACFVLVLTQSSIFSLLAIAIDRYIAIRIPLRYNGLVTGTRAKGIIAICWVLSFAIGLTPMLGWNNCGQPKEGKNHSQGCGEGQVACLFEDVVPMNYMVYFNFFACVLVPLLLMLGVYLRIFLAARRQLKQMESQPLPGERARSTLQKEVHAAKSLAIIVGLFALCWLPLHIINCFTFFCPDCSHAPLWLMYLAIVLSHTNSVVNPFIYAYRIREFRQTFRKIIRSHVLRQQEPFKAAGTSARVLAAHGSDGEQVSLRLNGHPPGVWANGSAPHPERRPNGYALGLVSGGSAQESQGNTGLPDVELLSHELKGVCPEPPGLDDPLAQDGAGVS
Outline: as §1

[3] = target: human Adenosine A2b receptor (Homo sapiens (Human), UniProt P29275); test: Adenosine receptor TR-FRET binding assay (A2b); settings: inhibition of binding of 30 nM CA200645; CHO cell membranes; Ki from IC50 by Cheng and Prusoff
Chain of human Adenosine A2b receptor (P29275 whole entry): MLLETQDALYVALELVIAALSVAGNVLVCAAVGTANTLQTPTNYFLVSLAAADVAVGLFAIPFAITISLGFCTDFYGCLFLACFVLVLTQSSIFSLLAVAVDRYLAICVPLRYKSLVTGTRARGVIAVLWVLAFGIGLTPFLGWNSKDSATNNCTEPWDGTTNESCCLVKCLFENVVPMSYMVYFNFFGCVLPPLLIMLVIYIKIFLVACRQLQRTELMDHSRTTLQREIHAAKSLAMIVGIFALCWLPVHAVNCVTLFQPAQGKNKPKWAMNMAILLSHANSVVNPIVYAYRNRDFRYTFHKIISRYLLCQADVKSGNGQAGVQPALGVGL
Outline: as §1

human PBMCs = test: CD3/CD28 stimulated IL-2 release NECA reversal assay in human PBMCs; type: cell-based; settings: PBMC, reversal of 1 uM NECA, 24 hours
Procedure: Blood is drawn from healthy volunteers using sodium citrate as the anticoagulant (0.3% final concentration). After centrifugation of the blood over Histopaque-1077, PBMCs are collected from the Histopaque/plasma interface and washed twice in PBS (300 g for 10 mins at room temp). Cells are plated at 50,000 cells/well in 150 μl RPMI/10% FCS in 96-well cell culture plates that have been precoated with 1 μg/ml CD3 antibody. 50 μl diluted compound mix is added to the cells, to obtain final concentrations of 1 μg/ml CD28 antibody, 1 uM NECA and 0.003-10 μM adenosine receptor antagonist. Assay plates are incubated for 24 hours at 37° C. in a humidified incubator. Culture supernatant is tested for IL-2 levels using the human IL-2 Tissue Culture Kit (Meso Scale Discovery).

[4] = test system: CD8+ T cells in human whole blood; test: Measurement of pCREB in CD8+ T cells in human whole blood; type: cell-based; settings: T-cell, 3 μM NECA, rolipram, FACS
Procedure: Heparinised human whole blood was pre-incubated at 37° C. with serial dilutions of A2a antagonists for 20 min. and the phosphodiesterase inhibitor rolipram to amplify the pCREB response. The adenosine receptor agonist NECA is then added at a final concentration of 3 μM and following a 60 min incubation the blood is fixed and red blood cells lysed. White blood cells are isolated, permeabilized and stained with directly conjugated fluorescent antibodies to phospho-CREB (Alexa Fluor 488) and CD8 (Alexa Fluor 647) and the level of phospho-CREB in CD8+ T cells is measured by FACS using a BD Accuri C6 Flow Cytometer.

[5] = test system: immature monocyte-derived dendritic cells (MoDC); test: MoDC pCREB assay; type: cell-based; settings: Homo sapiens, Dendritic cell, CD209+/CD86-low cells, 1 μM NECA, 20 μM rolipram, largely specific to A2B
Procedure: Monocytes are isolated from human whole blood using CD14 microbeads (Miltenyi Biotec 130-050-201) and differentiated to immature monocyte-derived dendritic cells (MoDC) by culture for 5 days in Mo-DC Differentiation Medium (Miltenyi Biotec 130-094-812). MoDCs are seeded into fresh medium into U bottomed 96 well culture plates and pre-incubated at 37° C. with serial dilutions of A2A/B antagonists for 15 min. At the same time the cells are co-incubated with the phosphodiesterase inhibitor rolipram (final concentration of 20 μM) to amplify the subsequent pCREB response. Adenosine receptor agonist NECA is then added at 1 μM final concentration, leading to an increase in CREB phosphorylation. Following a 45 min incubation at 37° C., the cells are fixed, permeabilized and stained with directly conjugated fluorescent antibodies to phospho-CREB (Alexa Fluor 488), CD209 (PerCP-Cy5.5) and CD86 (APC). Samples are analysed by FACS to measure fluorescence in corresponding channels, and also forward and Side scatter. The population of CD209+/CD86-low cells corresponding to immature dendritic cells is gated for analysis of pCREB levels.
Approximately 5% of the analysed cells are positive for detection of pCREB in the absence of agonist stimulation, representing the background signalling of all pathways upstream of CREB. Following NECA stimulation this is increased to ˜80% pCREB+ve, and this increase is essentially fully reversible by A2B or dual A2A/B antagonists.
IC50 is represented as the point of inflection of a sigmoidal curve

[6] = inhibition of binding of 100 nM CA200645, CHO cell membranes, Ki from IC50 by Cheng and Prusoff

Chain of human Adenosine A1 receptor (P30542 whole entry): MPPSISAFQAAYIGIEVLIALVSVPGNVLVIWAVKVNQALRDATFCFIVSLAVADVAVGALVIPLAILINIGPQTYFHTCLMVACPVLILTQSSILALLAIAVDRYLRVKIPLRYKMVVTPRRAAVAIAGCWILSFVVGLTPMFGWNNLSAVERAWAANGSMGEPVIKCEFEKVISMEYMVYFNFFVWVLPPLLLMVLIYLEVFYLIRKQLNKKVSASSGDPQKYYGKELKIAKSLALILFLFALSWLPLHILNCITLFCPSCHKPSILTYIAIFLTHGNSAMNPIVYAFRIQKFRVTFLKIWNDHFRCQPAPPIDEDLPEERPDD

Cc1ncnc2ccc(-c3sc(NC(=O)N4CC5(CNCCO5)C4)nc3-c3cccc(C#N)c3)cc12 [Example 4.1, N-[4-(3-Cyanophenyl)-5-(4-methylquinazolin-6-yl)thiazol-2-yl]-5-oxa-2,8-diazaspiro[3.5]nonane-2-carboxamide]
Ki [1]: 42 nM
Ki [2]: 0.14 nM
Ki [3]: 1.1 nM
IC50 (human PBMCs): 1.8 nM
IC50 [4]: 8 nM
IC50 [5]: 2 nM

Cc1ncnc2ccc(-c3sc(NC(=O)N4CCC(C)(C#N)CC4)nc3-c3cccc(C#N)c3)cc12 [Example 6, 4-Cyano-N-[4-(3-cyanophenyl)-5-(4-methylquinazolin-6-yl)thiazol-2-yl]-4-methyl-piperidine-1-carboxamide]
Ki [1, 6]: 3 nM
Ki [2, 6]: 0.07 nM
Ki [3]: 0.8 nM
IC50 (human PBMCs): 0.1 nM
IC50 [4]: 11 nM
IC50 [5]: 2 nM

Cc1ncnc2ccc(-c3sc(NC(=O)N4CC5(CN(C)C5)C4)nc3-c3cccc(C#N)c3)cc12 [Example 7.4, N-[4-(3-Cyanophenyl)-5-(4-methylquinazolin-6-yl)thiazol-2-yl]-6-methyl-2,6-diazaspiro[3.3]heptane-2-carboxamide]
Ki [1, 6]: 345 nM
Ki [2, 6]: 1.83 nM
Ki [3]: 6.4 nM
IC50 (human PBMCs): 3 nM
IC50 [4]: 60 nM
IC50 [5]: 4 nM

Cc1ncnc2ccc(-c3sc(NC(=O)N4CCC5(CC4)CNC(=O)C5)nc3-c3cccc(C#N)c3)cc12 [Example 7.17, N-[4-(3-Cyanophenyl)-5-(4-methylquinazolin-6-yl)thiazol-2-yl]-3-oxo-2,8-diazaspiro[4.5]decane-8-carboxamide]
Ki [1, 6]: 13 nM
Ki [2, 6]: 0.2 nM
Ki [3]: 1.9 nM
IC50 (human PBMCs): 1.1 nM
IC50 [4]: 4 nM
IC50 [5]: 2 nM

Cc1ncnc2ccc(-c3sc(NC(=O)N4CCC5(CCC(=O)N5)CC4)nc3-c3cccc(C#N)c3)cc12 [Example 7.23, N-[4-(3-Cyanophenyl)-5-(4-methylquinazolin-6-yl)thiazol-2-yl]-2-oxo-1,8-diazaspiro[4.5]decane-8-carboxamide]
Ki [1, 6]: 10 nM
Ki [2, 6]: 0.13 nM
Ki [3]: 1.1 nM
IC50 (human PBMCs): 0.8 nM
IC50 [4]: 30 nM
IC50 [5]: 3 nM

Cc1ncnc2ccc(-c3sc(NC(=O)N4CC5(C4)CC(C)(O)C5)nc3-c3cccc(C#N)c3)cc12 [Example 7.24, N-[4-(3-Cyanophenyl)-5-(4-methylquinazolin-6-yl)thiazol-2-yl]-6-hydroxy-6-methyl-2-azaspiro[3.3]heptane-2-carboxamide]
Ki [1, 6]: 18 nM
Ki [2, 6]: 0.14 nM
Ki [3]: 1.3 nM
IC50 (human PBMCs): 0.7 nM
IC50 [4]: 12 nM
IC50 [5]: 2 nM

Cc1ncnc2ccc(-c3sc(NC(=O)N4CCC(C)(C#N)C4)nc3-c3cccc(C#N)c3)cc12 (stereo not drawn) [Example 7.25, 3-Cyano-N-[4-(3-cyanophenyl)-5-(4-methylquinazolin-6-yl)thiazol-2-yl]-3-methyl-pyrrolidine-1-carboxamide]
Ki [1, 6]: 3 nM
Ki [2, 6]: 0.12 nM
Ki [3]: 1.1 nM
IC50 (human PBMCs): 0.3 nM
IC50 [4]: 7 nM
IC50 [5]: 2 nM

Cc1ncnc2ccc(-c3sc(NC(=O)N4CCC5(CC4)CN(C)C(=O)O5)nc3-c3cccc(C#N)c3)cc12 [Example 7.26, N-[4-(3-Cyanophenyl)-5-(4-methylquinazolin-6-yl)thiazol-2-yl]-3-methyl-2-oxo-1-oxa-3,8-diazaspiro[4.5]decane-8-carboxamide]
Ki [1, 6]: 19 nM
Ki [2, 6]: 0.13 nM
Ki [3]: 1.8 nM
IC50 (human PBMCs): 0.5 nM
IC50 [4]: 15 nM
IC50 [5]: 2 nM

Cc1ncnc2ccc(-c3sc(NC(=O)N4CCN(C5COC5)CC4)nc3-c3cccc(C#N)c3)cc12 [Example 7.28, N-[4-(3-Cyanophenyl)-5-(4-methylquinazolin-6-yl)thiazol-2-yl]-4-(oxetan-3-yl)piperazine-1-carboxamide]
Ki [1, 6]: 65 nM
Ki [2, 6]: 0.64 nM
Ki [3]: 3.3 nM
IC50 (human PBMCs): 0.9 nM
IC50 [4]: 22 nM
IC50 [5]: 5 nM

Cc1ncnc2c(C)cc(-c3sc(NC(=O)N4CC5(COC5)C4)nc3-c3cccc(C#N)c3)cc12 [Example 20, N-[4-(3-Cyanophenyl)-5-(4,8-dimethylquinazolin-6-yl)thiazol-2-yl]-2-oxa-6-azaspiro[3.3]heptane-6-carboxamide]
Ki [1, 6]: 8 nM
Ki [2, 6]: 0.18 nM
Ki [3]: 1 nM
IC50 (human PBMCs): 0.8 nM
IC50 [4]: 105 nM
IC50 [5]: 3 nM
